One data set deals with cGMP PDE V (Homo sapiens, UniProt O76074). Description: cyclic nucleotide PDE V activity, PDE SPA assay kit, inhibition study. It counts as biochemical. As for the experimental part:
The cyclic nucleotide PDE V activity was determined using PDE SPA assay kit (Amersham Pharmacia biotech, UK). Each reaction mixture (100 μL total volume) consisted of the column elute containing PDE V (10 μL), [^3H]-cGMP (5 μCi/mL), bovine serum albumin (0.5 mg/mL), and MgCl2 (5 mM) in Tris-HCl buffer (15 mM, pH 7.5). The reactions were initiated by the addition of PDE V and the samples were incubated at 30° C. for 30 min, after which the reaction was stopped by the addition of 50 μL of SPA beads. The reaction tube was then settled for 20 min and was counted on the scintillation counter (Tri-carb 1500, Packard, USA). For the inhibition study of PDE V activity, the sildenafil and test compounds were dissolved in dimethyl sulfoxide (DMSO) and was diluted with distilled water. The final concentration of DMSO was less than 0.2% (v/v).
The following table illustrate the in vitro activities for a range of the compounds of the invention as inhibitors of cGMP PDE V.

Where [1] appears, read: in vitro inhibition of cGMP PDE V, [3H]-cGMP, 30° C., 30 min, read-out: IC50.

Counter-ions that a name gives are not always drawn. Like-named read-outs stand apart in the source and are kept apart here.

Usually melting point stands for the temperature, or range, at which the solid turns liquid. By IC50 is commonly meant the concentration that gives 50% inhibition. Turning to `CCCc1cn(C)c2c(=O)[nH]c(-c3cc(S(=O)(=O)N4CCN(Cc5nnn[nH]5)CC4)ccc3OCC)nc12` [Example 116], the melting point was 188 °C (dec.). For the same compound, the IC50 at cGMP PDE V (setting [1]) was determined as 0.28 nM.
For `CCCc1cn(C)c2c(=O)[nH]c(-c3cc(S(=O)(=O)N4CCN(CCCl)CC4)ccc3OCC)nc12` [Example 33, 5-(5-(4-(2-chloroethyl)piperazinylsulfonyl)-2-ethoxyphenyl)-1-methyl-3-n-propyl-1,6-dihydro-7H-pyrrolo[4,3-d]pyrimidin-7-one], the melting point is 226 °C (dec.). This compound also yielded an IC50 on cGMP PDE V of 2.06 nM.
In turn, `CCCOc1ccc(S(=O)(=O)N2CCC(C(=O)O)CC2)cc1-c1nc2c(CCC)cn(C)c2c(=O)[nH]1` [Example 105] registered a melting point of 155 to 155.5 °C. Further, the IC50 at cGMP PDE V (setting [1]) was determined as 0.71 nM.
Turning to `CCCc1cn(C)c2c(=O)[nH]c(-c3cc(S(=O)(=O)N4CCN(CCCCl)CC4)ccc3OCC)nc12` [Example 35, 5-(5-(4-(3-chloropropyl)piperazinylsulfonyl)-2-ethoxyphenyl)-1-methyl-3-n-propyl-1,6-dihydro-7H-pyrrolo[4,3-d]pyrimidin-7-one hydrochloride], the IC50 at cGMP PDE V (setting [1]) is 0.49 nM.
In turn, `CCCc1cn(C)c2c(=O)[nH]c(-c3cc(S(=O)(=O)N4CCC(CC(=O)O)CC4)ccc3OCC)nc12` [Example 106, 5-(2-ethoxy-5-(4-(hydroxycarbonylmethyl)piperidinylsulfonyl)phenyl)-1-methyl-3-n-propyl-1,6-dihydro-7H-pyrrolo[4,3-d]pyrimidin-7-one] registered a melting point of 138.5 to 139.5 °C. The IC50 at cGMP PDE V (setting [1]) worked out at 0.27 nM.
For `CCCc1cn(C)c2c(=O)[nH]c(-c3cc(S(=O)(=O)N4CCN(CCCF)CC4)ccc3OCC)nc12` [Example 19, 5-(2-ethoxy-5-(4-(3-fluoropropyl)piperazinylsulfonyl)phenyl)-1-methyl-3-n-propyl-1,6-dihydro-7H-pyrrolo[4,3-d]pyrimidin-7-one sulfuric acid], the IC50 on cGMP PDE V (setting [1]) came out at 0.64 nM.
Take `CCCOc1ccc(S(=O)(=O)N2CCN(Cc3nnn[nH]3)CC2)cc1-c1nc2c(CCC)cn(C)c2c(=O)[nH]1` [Example 117, 5-(2-n-propoxy-5-(4-(1H-tetrazol-5-ylmethyl)piperazinylsulfonyl)phenyl)-1-methyl-3-n-propyl-1,6-dihydro-7H-pyrrolo[4,3-d]pyrimidin-7-one]: the melting point was 150 °C (dec.). The IC50 on cGMP PDE V (setting [1]) was 0.7 nM.

The record behind these values is patent publication US6962911B2, “Pyrrolopyrimidinone derivatives, process of preparation and use” (SK Chemicals Co., Ltd., priority 2000, dated 2005).
